Test results published in patent US8241842B2, “Methods and devices for measuring diffusion by magnetic resonance imaging” (California Institute of Technology, priority 2003, dated 2012).
Where “and” joins values, the source holds several entries; their conditions need not be identical. Identical values can stand only once. Like-named read-outs stand apart in the source and are kept apart here. Blank lines part the entries; values can stand above or below the compound they belong to.

Legend:
[1] = from mean signal ratio between chambers; one saturated with oxygen, the other with argon; fresh Bruch's membrane
Excerpt: (§1) This sample assembly is then inserted in the upper circular recess of the membrane cell base. The membrane cell washer is then placed over the sample assembly and the membrane cell cap screwed onto the base, tightening the washer onto the sample assembly. The upper central well in the membrane cell cap is then filled with inert gas (e.g. argon or nitrogen) saturated aqueous solution and sample placed in the magnetic resonance imaging system.
(§2) Sequential T1-weighted magnetic resonance images are acquired of a midline slice through the membrane cell, parallel to the long-axis of the cell.
The generalized exponential decay to equilibrium in two chamber system, including systematic drift function F(t) is given by: SA(t)=F(t)[SA(∞)+(SA(0)−SA(∞))e^−t/Tc] SB(t)=F(t)[SB(∞)+(SB(∞)−SB(0))e^−t/Tc] Taking the ration of the two signals eliminates the systematic drift allowing the time-constant for the transport across the membrane to be determined from the MRI signal time-course, as follows: […]

[2] = from mean signal ratio between chambers; one saturated with oxygen, the other with argon; 0.4 μm polycarbonate film
Excerpt: as §1, §2
The generalized exponential decay to equilibrium in two chamber system, including systematic drift function F(t) is given by: SA(t)=F(t)[SA(∞)+(SA(0)−SA(∞))e^−t/Tc] SB(t)=F(t)[SB(∞)+(SB(∞)−SB(0))e^−t/Tc] Taking the ration of the two signals eliminates the systematic drift allowing the time-constant for the transport across the membrane to be determined from the MRI signal time-course, as follows:
The dividing membrane was 0.4 μm pore-size polycarbonate film.

[3] = MRI of gadolinium chelate diffusion across a membrane (Example 3, FIG. 5); assay type: physicochemical; settings: exponential fit to signal difference between chambers; upper chamber initially 1 mM gadolinium chelate, lower chamber water
Procedure: FIGS. 5A-5C provide the results of experiments on gadolinium chelate-concentration related signal changes in two chambers. (a) MR image of the membrane cell with the upper chamber initially containing 1 mM gadolinium chelate (Prohance® (gadoteridol), Bracco Diagnostics Inc., Princeton N.J.) and the lower chamber containing water. Signal enhancement due to the gadolinium chelate can be indicated by red false coloring. (b) the mean signal time course within the regions of interest indicated by black boxes in (a). The signal difference between the chambers has been fitted to an exponential and has a time-constant of approximately 158 minutes. The concentration time course in each chamber would require signal-concentration calibration. […] This effect would not be readily detected by non-imaging methods.
Gadolinium chelates of various molecular weights (e.g. […]) may be used as MR detectable tracers which alter the T1 relaxation time of the surrounding water and thus imparts contrast to the image. […] If the upper chamber is initially filled with a dilute aqueous solution of the chelate, and the lower chamber is filled with water, the diffusional permeability of the membrane may be estimated from the time course of either (a) the mean signal within each chamber or (b) the spatial variation of chelate above and below the membrane as determined by calibrated MR images. […]

[4] = MRI of D2O/H2O exchange across a membrane in the membrane cell (Example 1A, FIG. 1); assay type: physicochemical; settings: Water/D2O chamber signal ratio vs time, best fit exponential; one chamber initially D2O, the other H2O
Excerpt: D2O gives no signal in conventional 1H MRI, and thus acts as a negative marker. The diffusional permeability can then be calculated from the signal time-course using conventional mass transport equations assuming that signal intensity is proportional to water concentration.
FIG. 1 provides the results of experiments on D2O-concentration related signal changes in two chambers, one initially containing D2O, the other with H2O.

[5] = MRI of D2O/H2O exchange across a membrane in the membrane cell (Example 1B, FIG. 2); assay type: physicochemical; settings: signal difference between chambers over 64 minutes; upper chamber deuterium oxide saline, lower water saline; 12 micron pore-size polycarbonate membrane
Excerpt: A 5 mm diameter membrane tissue sample is mounted between two layers of 125 micron pore-size nylon mesh. The tissue sample assembly is then mounted in the central recess of the cell base and the cell cap is tightened onto the base using three M2.5 nylon screws. O-rings mounted into the cap and base prevent fluid leakage between the upper and lower central chambers. The central well of the base is filled with water or saline water with the cell inverted. The base well is then sealed with impermeable adhesive tape. The central well of the upper chamber is filled with deuterium oxide (D2O) or D2O saline and sealed with impermeable adhesive tape as before.
D2O gives no signal in conventional ^1H MRI, and thus acts as a negative marker. The diffusional permeability can then be calculated from either the mean signal time-courses in the upper and lower chambers using conventional mass transport equations assuming that signal intensity is proportional to water concentration.
FIG. 2 provides the results of experiments on D2O-concentration related signal changes in two chambers, one initially containing D2O, the other with H2O. Cross-sectional T1-weighted magnetic resonance image through the membrane cell during permeability testing of a single layer of 12 micron pore-size polycarbonate membrane. Images at (a) time=0 minutes and (b) 64 minutes are shown. Images were acquired every 256 seconds. […]

time-constant [1]: 67.7 min
time-constant [2]: 59.8 min and 54.9 min
SMILES: O=O [oxygen]

SMILES: CC(O)CN1CCN(CC(=O)[O-])CCN(CC(=O)[O-])CCN(CC(=O)[O-])CC1.[Gd+3] (centres unmarked) [Prohance, gadoteridol]
time-constant [3]: approximately 158 minutes

time constant for the exchange [4]: approximately 17.3 minutes
time-constant of the fitted exponential decay (index of membrane permeability) [5]: 40.7 min
SMILES: [2H]O[2H] [D2O, deuterium oxide]
